Source: US20240399175A1, “REVERSAL OF SENESCENCE BY ULTRASOUND IRRADIATION” (Board of Regents, The University of Texas System, priority 2021, published 2024)

Test system: Vero cells
Test: Senescence induction in Vero cells by chemical stressors (growth, cell size)
Format: cell-based, African monkey
Conditions: for cell growth of stressor-treated cells: 200 μM H2O2, 4 μM sodium butyrate, 25 μM Bleomycin Sulphate for 36-48 hours, growth over 48 h
Description: To test the generality of any senescent treatment, the inventors used four different methods to cause Vero cell senescence, replicative, hydrogen peroxide, sodium butyrate and Bleomycin sulfate. Senescence was measured as a decreased growth rate, increased O-gal activity, increased cell size, and secretion of pro-inflammatory factors called SASP. All four criteria were met with each type of senescent cells (FIGS. 1A to 1G). […] (FIG. 1B). There were significant differences in the size of the senescent cells with bleomycin sulfate-treated cells being the largest and replicative senescent cells the smallest (FIGS. 1C and 1D). To assay for SASP activity, the inventors cultured the senescent cells overnight and collected the supernatant from each dish. Supernatants were diluted 1:1 with fresh media and added to normal control cells. The change in normal cell number was measured after a 48 hour incubation. […] When β-galactosidase levels were measured by antibody staining, there was a relatively uniform increase in levels (FIGS. 1F and 1G). Thus, by all four criteria, the four different types of senescent cells were indeed senescent.
Senescence induction and quantification. Vero cells were treated with various stressors including 200 μM H2O2, 4 μM of sodium butyrate (SB), and 25 μM of Bleomycin Sulphate (BS) and incubated for 36-48 hours. After washing with PBS and then replacing growth medium with fresh medium, cells were incubated for 4 days to confirm the growth arrest of senescent cells. […] The inventors used four criteria to determine if cells were senescent; (1) Cell cycle arrest by determining the growth rate, (2) Increase in cell spread area, (3) Development of senescence associated secretory phonotype (SASP) in culture medium, and (4) beta-gal staining. The inventors captured images of cells with an Evos microscope at 10× magnification after treatment and 48 hours post treatment. To measure growth by the increase in cell number, 15 random images were captured, then the average number of cells were determined, which was divided by the area of one frame to get the cell density (cells/cm^2). Then this seeding density was multiplied by the total area of the dish or well to obtain the total number of cells after US treatment and after 48 hours if incubation. The total number of cells at 48 hours was divided by the total number of cells just after the treatment to determine the growth rate. If the ratio was one, there was no growth.
Senescence was detected by the beta-gal senescence staining kit as per manufacturer's protocol. […] The percentages of beta-gal positive cells were determined by counting the number of blue cells and dividing by the total number of cells. Cell spread area was determined by capturing the mages of cells with a 10× objective using an Evos microscope. […]

OO [hydrogen peroxide]
cell growth of stressor-treated cells: cell growth was effectively blocked

CCCC(=O)[O-].[Na+] [sodium butyrate]
cell growth of stressor-treated cells: cell growth was effectively blocked

Bleomycin sulfate
cell growth of stressor-treated cells: cell growth was effectively blocked | size of the senescent cells (comparison among types of senescent cells): largest
